ChEMBL document CHEMBL5465560, “Selectivity Literature for EUbOPEN Chemogenomic Library” (2024)
Blank lines part the entries; values can stand above or below the compound they belong to.

Key:
[1] = target: T1, Serine/threonine-protein kinase TNNI3K (Homo sapiens) (UniProt Q59H18); assay: Selectivity interaction (KinomeScan (DiscoverX)) EUB0000666a TNNI3K; settings: at 10 µM
T1 sequence (whole entry): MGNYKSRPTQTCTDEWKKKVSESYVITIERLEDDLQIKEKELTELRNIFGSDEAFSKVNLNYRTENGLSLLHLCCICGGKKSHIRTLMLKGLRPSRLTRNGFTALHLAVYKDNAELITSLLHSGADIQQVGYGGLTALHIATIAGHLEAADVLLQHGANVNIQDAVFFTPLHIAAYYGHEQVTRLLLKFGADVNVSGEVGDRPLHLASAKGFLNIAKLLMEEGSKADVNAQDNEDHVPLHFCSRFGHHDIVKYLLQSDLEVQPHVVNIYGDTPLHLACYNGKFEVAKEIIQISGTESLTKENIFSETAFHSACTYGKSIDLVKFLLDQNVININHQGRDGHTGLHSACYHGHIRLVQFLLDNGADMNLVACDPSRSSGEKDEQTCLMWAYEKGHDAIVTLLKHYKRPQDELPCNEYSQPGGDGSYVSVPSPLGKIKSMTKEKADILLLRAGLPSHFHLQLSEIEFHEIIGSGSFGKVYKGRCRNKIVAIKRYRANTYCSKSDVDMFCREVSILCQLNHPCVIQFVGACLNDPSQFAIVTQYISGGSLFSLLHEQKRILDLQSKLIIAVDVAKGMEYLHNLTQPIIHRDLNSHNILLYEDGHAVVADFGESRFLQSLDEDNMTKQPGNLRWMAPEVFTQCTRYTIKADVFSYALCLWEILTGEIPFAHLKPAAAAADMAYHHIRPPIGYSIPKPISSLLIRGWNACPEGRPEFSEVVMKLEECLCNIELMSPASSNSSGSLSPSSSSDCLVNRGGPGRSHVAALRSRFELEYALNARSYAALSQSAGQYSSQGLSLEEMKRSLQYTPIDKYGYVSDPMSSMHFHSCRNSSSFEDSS

[2] = tested on: Epidermal growth factor receptor (Homo sapiens), P00533 [UNDEFINED MUTATION]; assay: Selectivity interaction (ProQinase) EUB0000171b EGFR; settings: at 1 µM
Sequence of Epidermal growth factor receptor (Homo sapiens), P00533 [UNDEFINED MUTATION] (P00533 whole entry, looked up, stated change not applied, canonical isoform): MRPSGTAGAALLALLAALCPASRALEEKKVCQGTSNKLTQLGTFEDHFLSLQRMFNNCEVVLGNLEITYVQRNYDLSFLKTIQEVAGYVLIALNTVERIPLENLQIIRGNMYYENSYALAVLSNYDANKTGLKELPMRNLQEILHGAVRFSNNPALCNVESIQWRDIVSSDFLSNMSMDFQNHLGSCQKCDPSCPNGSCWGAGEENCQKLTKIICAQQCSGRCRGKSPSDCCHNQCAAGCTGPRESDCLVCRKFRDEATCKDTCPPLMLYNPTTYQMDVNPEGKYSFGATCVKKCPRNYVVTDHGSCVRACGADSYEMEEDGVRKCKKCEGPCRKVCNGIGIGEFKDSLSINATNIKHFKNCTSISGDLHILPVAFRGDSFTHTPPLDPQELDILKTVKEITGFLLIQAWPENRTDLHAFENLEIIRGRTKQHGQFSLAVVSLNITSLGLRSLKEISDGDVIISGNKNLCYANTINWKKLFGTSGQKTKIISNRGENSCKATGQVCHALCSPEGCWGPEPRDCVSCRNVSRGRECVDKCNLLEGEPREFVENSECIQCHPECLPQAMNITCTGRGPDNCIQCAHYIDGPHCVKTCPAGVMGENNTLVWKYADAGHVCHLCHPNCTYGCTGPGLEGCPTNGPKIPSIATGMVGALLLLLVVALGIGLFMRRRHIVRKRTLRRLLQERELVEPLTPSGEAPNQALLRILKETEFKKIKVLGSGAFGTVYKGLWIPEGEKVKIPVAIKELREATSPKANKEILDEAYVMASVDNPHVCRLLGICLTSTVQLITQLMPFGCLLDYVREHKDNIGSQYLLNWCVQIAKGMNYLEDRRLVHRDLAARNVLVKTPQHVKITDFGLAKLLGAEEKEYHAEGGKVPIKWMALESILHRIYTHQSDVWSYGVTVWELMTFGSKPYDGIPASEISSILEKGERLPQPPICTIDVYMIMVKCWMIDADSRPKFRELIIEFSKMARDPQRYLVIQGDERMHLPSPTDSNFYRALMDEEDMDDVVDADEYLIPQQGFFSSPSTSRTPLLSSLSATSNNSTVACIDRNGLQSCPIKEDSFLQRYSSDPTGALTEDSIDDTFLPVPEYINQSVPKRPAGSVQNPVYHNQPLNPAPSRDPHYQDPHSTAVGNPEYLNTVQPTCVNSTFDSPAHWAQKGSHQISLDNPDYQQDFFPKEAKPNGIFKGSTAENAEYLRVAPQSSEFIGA

[3] = target: Casein kinase I isoform delta (Homo sapiens, UniProt P48730); assay: Selectivity interaction (ProQinase) EUB0000171b CSNK1D
Sequence of Casein kinase I isoform delta (P48730 whole entry, looked up, canonical isoform): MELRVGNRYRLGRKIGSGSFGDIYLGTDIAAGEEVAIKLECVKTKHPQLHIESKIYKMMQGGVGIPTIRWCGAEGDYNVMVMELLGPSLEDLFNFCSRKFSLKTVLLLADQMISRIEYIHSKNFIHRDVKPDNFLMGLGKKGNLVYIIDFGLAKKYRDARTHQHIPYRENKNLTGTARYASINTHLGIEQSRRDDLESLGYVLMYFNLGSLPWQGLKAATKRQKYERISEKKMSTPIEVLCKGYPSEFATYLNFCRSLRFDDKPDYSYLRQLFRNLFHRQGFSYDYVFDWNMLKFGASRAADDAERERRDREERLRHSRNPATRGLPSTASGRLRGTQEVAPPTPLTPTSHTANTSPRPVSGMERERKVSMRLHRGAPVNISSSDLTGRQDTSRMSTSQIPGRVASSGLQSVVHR

[4] = target: Sodium-dependent dopamine transporter (Homo sapiens, UniProt Q01959); assay: Selectivity interaction (Safety Panel 44tm (Eurofins)) EUB0000162b SLC6A3; settings: at 10 µM
Sequence of Sodium-dependent dopamine transporter (Q01959 whole entry, the tested form may be a part): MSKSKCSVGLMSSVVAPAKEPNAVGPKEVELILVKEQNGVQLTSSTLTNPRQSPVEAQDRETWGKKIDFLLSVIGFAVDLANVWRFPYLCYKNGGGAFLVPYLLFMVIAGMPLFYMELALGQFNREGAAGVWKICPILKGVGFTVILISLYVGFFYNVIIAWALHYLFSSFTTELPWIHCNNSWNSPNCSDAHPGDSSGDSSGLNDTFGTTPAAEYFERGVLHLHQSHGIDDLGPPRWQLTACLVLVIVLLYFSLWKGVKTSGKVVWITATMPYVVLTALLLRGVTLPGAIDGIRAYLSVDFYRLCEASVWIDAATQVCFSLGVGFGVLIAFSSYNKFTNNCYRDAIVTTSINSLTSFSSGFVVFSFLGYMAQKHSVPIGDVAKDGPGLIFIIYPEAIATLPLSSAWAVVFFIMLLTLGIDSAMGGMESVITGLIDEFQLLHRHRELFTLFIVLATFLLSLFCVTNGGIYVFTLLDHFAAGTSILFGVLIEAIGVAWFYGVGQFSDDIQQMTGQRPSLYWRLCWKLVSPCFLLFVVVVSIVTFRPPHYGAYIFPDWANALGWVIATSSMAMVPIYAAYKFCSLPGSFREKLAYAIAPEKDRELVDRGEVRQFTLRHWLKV

[5] = target: Phosphatidylinositol 4-phosphate 3-kinase C2 domain-containing subunit beta (Homo sapiens) (UniProt O00750); assay: Selectivity interaction (KinomeScan (DiscoverX)) EUB0001049a PIK3C2B; settings: at 1 µM
[6] = tested on: Epidermal growth factor receptor (Homo sapiens), P00533 [UNDEFINED MUTATION]; assay: Selectivity interaction (KinomeScan (DiscoverX)) EUB0000655a EGFR; settings: at 10 µM
[7] = target: T2, Histone-lysine N-methyltransferase EHMT2 (Homo sapiens) (UniProt Q96KQ7); settings: at 1 µM
T2 sequence (whole entry): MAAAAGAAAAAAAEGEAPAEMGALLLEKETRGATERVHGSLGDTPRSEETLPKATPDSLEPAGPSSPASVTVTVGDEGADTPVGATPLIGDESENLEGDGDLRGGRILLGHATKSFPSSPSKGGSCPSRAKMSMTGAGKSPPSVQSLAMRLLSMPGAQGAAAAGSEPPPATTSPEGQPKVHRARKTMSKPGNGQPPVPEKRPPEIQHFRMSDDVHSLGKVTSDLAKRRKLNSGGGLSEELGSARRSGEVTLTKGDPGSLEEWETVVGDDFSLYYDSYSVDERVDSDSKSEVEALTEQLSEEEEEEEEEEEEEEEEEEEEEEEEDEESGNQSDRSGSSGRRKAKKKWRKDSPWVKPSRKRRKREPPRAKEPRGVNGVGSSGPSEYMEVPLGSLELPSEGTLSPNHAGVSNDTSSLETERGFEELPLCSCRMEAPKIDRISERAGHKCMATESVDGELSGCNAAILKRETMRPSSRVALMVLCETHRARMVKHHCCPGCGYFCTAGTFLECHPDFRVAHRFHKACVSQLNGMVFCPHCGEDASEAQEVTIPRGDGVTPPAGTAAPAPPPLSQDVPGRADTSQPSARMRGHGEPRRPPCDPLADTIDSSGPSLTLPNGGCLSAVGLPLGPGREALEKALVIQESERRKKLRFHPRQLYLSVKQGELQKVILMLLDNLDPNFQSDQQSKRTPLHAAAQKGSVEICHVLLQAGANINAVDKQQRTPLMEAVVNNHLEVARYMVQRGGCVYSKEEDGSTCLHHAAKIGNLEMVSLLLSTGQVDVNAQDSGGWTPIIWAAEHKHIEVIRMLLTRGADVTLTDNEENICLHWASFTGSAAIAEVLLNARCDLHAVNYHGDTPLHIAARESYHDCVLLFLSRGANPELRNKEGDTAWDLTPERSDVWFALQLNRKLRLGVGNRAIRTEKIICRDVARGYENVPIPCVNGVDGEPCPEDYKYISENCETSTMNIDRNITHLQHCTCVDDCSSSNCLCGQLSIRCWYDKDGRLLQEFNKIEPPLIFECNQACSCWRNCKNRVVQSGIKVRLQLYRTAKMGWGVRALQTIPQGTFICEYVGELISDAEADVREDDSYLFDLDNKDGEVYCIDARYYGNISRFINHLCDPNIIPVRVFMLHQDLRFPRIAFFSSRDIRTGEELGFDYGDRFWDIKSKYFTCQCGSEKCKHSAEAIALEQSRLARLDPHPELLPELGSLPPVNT

[8] = target: Insulin receptor-related protein (Homo sapiens) (UniProt P14616); assay: Selectivity interaction (KinomeScan (DiscoverX)) EUB0000229b INSRR; settings: at 10 µM
Sequence of Insulin receptor-related protein (Homo sapiens) (P14616 27-742 limits assumed): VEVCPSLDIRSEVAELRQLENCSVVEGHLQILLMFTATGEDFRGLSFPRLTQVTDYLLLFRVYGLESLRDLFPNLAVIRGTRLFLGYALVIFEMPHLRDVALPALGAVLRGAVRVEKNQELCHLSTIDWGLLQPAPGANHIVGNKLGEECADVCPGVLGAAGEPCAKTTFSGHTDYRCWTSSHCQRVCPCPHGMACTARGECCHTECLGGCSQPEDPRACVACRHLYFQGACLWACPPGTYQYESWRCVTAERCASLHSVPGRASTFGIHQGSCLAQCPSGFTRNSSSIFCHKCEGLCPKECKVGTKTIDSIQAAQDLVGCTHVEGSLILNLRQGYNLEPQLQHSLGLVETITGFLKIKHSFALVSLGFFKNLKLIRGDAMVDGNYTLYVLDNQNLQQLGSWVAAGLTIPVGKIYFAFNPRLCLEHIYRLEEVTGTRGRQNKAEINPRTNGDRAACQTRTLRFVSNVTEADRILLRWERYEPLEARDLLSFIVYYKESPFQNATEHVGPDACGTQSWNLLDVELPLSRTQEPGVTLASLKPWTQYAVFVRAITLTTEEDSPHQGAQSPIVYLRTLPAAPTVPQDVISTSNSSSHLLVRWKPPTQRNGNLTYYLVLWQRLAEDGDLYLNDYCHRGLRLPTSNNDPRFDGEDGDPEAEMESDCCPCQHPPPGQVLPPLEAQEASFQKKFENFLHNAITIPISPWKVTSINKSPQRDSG
Sequence of Insulin receptor-related protein (Homo sapiens) (P14616 747-1297 limits assumed): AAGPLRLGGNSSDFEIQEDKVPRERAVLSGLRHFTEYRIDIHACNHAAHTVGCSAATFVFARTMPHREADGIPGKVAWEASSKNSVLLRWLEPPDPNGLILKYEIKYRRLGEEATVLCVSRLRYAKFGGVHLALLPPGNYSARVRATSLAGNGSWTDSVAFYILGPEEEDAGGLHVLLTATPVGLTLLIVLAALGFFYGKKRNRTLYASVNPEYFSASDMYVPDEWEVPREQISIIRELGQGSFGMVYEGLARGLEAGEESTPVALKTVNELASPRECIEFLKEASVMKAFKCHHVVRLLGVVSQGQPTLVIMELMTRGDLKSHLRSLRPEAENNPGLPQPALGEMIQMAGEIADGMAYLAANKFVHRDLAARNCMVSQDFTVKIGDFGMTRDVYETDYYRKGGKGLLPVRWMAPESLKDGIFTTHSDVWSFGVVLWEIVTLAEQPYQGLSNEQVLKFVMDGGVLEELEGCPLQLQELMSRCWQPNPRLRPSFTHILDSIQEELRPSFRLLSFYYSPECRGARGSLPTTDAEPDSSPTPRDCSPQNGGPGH

[9] = target: T3, Serine/threonine-protein kinase NLK (Homo sapiens) (UniProt Q9UBE8); settings: at 10 µM
T3 sequence (whole entry): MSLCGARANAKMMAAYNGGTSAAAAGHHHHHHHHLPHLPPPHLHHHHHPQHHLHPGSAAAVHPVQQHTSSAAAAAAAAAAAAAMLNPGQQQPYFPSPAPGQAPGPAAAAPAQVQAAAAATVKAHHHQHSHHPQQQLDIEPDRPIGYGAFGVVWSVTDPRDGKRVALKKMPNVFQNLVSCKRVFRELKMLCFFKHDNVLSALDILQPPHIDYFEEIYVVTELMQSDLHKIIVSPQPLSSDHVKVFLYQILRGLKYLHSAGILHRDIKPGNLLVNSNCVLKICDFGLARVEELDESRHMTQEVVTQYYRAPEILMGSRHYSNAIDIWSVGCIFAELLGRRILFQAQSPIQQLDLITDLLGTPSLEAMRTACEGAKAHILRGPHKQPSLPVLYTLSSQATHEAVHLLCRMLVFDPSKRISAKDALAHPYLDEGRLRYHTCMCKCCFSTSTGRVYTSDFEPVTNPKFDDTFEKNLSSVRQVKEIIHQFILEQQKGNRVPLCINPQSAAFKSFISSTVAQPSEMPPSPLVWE

Structure (SMILES): O=C(NOC[C@H](O)CO)c1ccc(F)c(F)c1Nc1ccc(I)cc1F
% of control [1]: 51%

% of control [2]: 88%
% of control ([3]; at 1 µM): 13%
% of control ([3]; at 5 µM): 3%
Structure (SMILES): C=CC(=O)Nc1cccc(C(=O)Nc2ccc(Nc3cc(-c4[nH]c(SC)nc4C)ccn3)cc2)c1

Structure (SMILES): CN(C)C(=O)Cn1cc(-c2ccc(-c3cncc4ccccc34)cc2)cn1
% of control [4]: 87%

Structure (SMILES): COc1cc(Nc2nc(C)cc(-c3cnn4nc(OC)ccc34)n2)cc(C(F)(F)F)c1
% of control [5]: 100%

Structure (SMILES): CN(C)CCOc1ccc(-c2nc(-c3ccncc3)c(-c3ccc4c(c3)CC/C4=N\O)[nH]2)cc1
% of control [6]: 92%

% activity [7]: > 90%
Structure (SMILES): CNCCN1CCC(c2cc(CN(C)C(=O)c3cccc(Oc4ccccc4)c3)ccn2)CC1

Structure (SMILES): COc1cc(N(C)c2ccnc3ccc(C(F)(F)F)cc23)cc(OC)c1OC
% binding [8]: 76%

Structure (SMILES): Cc1cc([C@@H](C)Nc2ccccc2C(=O)O)c2nc(N3CCOCC3)cc(=O)n2c1 [AZD-6482]
% of control [9]: 94%
